Source: patent US20240294499A1, “TARGETED PROTEIN DEGRADATION USING BIFUNCTIONAL COMPOUNDS THAT BIND UBIQUITIN LIGASE AND TARGET MCL-1 PROTEIN” (Captor Therapeutics S.A., priority 2021, published 2024)

Key:
[1] = molecular target: T1, [MCL-1]-[compound of formula (I)]-[CRBN/DDB1] complex (Homo sapiens, UniProt Q07820+Q96SW2); assay: HTRF ternary complex assay; type: binding; conditions: ternary complex formation; read-out: HTRF ternary complex Average pEC50 by molecule (converted)
Method: The effect of the bifunctional compounds of the invention on the formation of a ternary complex composed of [MCL-1]-[compound of formula (I)]-[CRBN/DDB1] was investigated.
Mix of protein solution were prepared: • 48 nM hMcl-1 and 105.6 nM CRBN was prepared in PPI Europium detection buffer with 2 mM DTT. • Acceptor and donor stock solutions were diluted 100 times in PPI Europium detection buffer. Equal volumes of both reagents were mixed. Finally giving 3 nM of Streptavidin-Eu cryptate […] and 6.67 nM of Anti-6× his-d2 […].
5 μl of protein mix was dispensed to all wells. The tested compounds in dose-response were dispensed onto a white 384-well low volume plate (Greiner, 784075). DMSO was backfilled to all wells, resulting in a final DMSO content of 0.5%. Wells containing only DMSO served as background. Next, 5 μl of solution with donor and acceptor was added to the wells.
The plate was sealed with transparent film and shaken using a VibroTurbulator for 60 see at level 3. The plate was then spun down shortly (10 s, 1000 rcf) and incubated at 25° C. for 180 min.
The read-out was performed with plate reader (Pherastar, BMG Labtech) in time resolved fluorescence mode. Filterset: TR 337 665 620.
The results were analyzed as follows: • 1) an average of fluorescence for background signal was calculated and used as a negative control; • 2) raw fluorescence values for tested compounds were normalized against negative controls; • 3) bell shape curve was fitted to a gaussian distribution using a non-linear least squares Gauss-Newton algorithm; • 4) EC50 and pEC50 values were determined.

[2] = test system: MV-4-11 cells; assay: Cell viability assay (CellTiter-Glo), MV-4-11; type: cell-based; conditions: Homo sapiens, MV4-11, 24 hours incubation, 1% FBS, read-out: Average pIC50 by molecule MV-4-11 (converted)
How it was run: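 Luminescent ATP readout (CellTiter-Glo) at 24 hours measured viability, expressed relative to DMSO-treated wells. Compound was added directly to the medium as a 9–12-point threefold series starting at 30 uM, at 0.5% final DMSO. The medium contained FBS reduced to 1%.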

[3] = molecular target: T1, [MCL-1]-[compound of formula (I)]-[CRBN/DDB1] complex; assay: AlphaLISA dose response ternary complex formation assay; type: binding; conditions: read-out: AlphaLISA dose response Average pEC50 by molecule (converted)
How it was run: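 EC50 comes from dose–response of AlphaLISA luminescence (excitation 680, emission 615 nm), normalised between DMSO background and an internal positive control, with concentrations past the hook point dropped. Ternary complex formed by mixing bead-bound biotin-hMCL-1 and His-CRBN/DDB1 (protein solutions 40 and 200 nM) with compound in 2% DMSO, 30 min, 25 °C.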

[4] = test system: ARH-77 cells; assay: Cell viability assay (CellTiter-Glo), ARH-77; type: cell-based; conditions: Homo sapiens, ARH-77, 24 hours incubation, 1% FBS, read-out: Average pIC50 by molecule ARH-77 (converted)
Excerpt: The effect of various compounds of the invention on the viability of OPM-2, MV-4-11 and ARH-77 cell lines was investigated, using the CTG protocol described below.
OPM-2 and MV-4-11 cell lines are derived from multiple myeloma and acute myeloid leukaemia, respectively. Both cell lines are described in the literature as MCL-1 dependent lines, as opposed to lymphoblast-like ARH-77 cell line, which is described as independent of MCL-1 (Tron A E et al. Nat Commun. 2018; 9: 5341; Caenepeel S et al. Cancer Discov. 2018 December; 8(12):1582-1597).
Cells (OPM-2, MV-4-11 or ARH-77) were seeded on […] in a growth medium with FBS reduced to 1%. Next, compound stocks were pre-diluted in DMSO and added directly to the cells growth medium (final DMSO concentration: 0.5%). Compound concentrations used in this assay: 1/3 dilutions starting at 30 uM (9 to 12 points).
After 24 hours of incubation, cell viability was evaluated using CellTiter-Glo Luminescent Cell Viability Assay (Promega, cat #G7572). Luminescence signal was measured using a CLARIOstar Plus Multi-Mode Microplate Reader (574-590 nm).
Results were normalized to DMSO control.

T1 sequence (Q07820 whole entry): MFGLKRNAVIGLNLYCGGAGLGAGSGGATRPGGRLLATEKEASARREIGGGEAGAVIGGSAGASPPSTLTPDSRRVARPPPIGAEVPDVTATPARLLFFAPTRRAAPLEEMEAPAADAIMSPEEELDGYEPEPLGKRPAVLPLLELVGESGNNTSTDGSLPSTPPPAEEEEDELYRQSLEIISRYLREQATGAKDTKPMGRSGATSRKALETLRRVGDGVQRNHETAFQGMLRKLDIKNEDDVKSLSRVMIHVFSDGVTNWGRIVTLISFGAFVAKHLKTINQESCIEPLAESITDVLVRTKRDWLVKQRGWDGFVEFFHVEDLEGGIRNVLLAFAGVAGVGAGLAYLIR
T1 sequence (Q96SW2 whole entry): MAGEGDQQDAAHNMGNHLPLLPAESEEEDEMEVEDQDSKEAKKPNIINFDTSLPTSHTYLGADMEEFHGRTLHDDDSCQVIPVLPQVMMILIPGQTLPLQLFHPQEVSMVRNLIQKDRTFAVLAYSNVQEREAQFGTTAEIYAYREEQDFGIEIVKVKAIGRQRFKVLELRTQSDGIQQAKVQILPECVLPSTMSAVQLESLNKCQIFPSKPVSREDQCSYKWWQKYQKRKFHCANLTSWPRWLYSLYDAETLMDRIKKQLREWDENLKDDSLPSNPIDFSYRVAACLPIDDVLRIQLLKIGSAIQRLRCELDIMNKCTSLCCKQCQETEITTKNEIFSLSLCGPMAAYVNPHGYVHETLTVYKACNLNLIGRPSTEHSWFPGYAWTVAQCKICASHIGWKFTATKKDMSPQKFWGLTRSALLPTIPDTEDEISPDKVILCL
T1 sequence (Q16531 whole entry partner): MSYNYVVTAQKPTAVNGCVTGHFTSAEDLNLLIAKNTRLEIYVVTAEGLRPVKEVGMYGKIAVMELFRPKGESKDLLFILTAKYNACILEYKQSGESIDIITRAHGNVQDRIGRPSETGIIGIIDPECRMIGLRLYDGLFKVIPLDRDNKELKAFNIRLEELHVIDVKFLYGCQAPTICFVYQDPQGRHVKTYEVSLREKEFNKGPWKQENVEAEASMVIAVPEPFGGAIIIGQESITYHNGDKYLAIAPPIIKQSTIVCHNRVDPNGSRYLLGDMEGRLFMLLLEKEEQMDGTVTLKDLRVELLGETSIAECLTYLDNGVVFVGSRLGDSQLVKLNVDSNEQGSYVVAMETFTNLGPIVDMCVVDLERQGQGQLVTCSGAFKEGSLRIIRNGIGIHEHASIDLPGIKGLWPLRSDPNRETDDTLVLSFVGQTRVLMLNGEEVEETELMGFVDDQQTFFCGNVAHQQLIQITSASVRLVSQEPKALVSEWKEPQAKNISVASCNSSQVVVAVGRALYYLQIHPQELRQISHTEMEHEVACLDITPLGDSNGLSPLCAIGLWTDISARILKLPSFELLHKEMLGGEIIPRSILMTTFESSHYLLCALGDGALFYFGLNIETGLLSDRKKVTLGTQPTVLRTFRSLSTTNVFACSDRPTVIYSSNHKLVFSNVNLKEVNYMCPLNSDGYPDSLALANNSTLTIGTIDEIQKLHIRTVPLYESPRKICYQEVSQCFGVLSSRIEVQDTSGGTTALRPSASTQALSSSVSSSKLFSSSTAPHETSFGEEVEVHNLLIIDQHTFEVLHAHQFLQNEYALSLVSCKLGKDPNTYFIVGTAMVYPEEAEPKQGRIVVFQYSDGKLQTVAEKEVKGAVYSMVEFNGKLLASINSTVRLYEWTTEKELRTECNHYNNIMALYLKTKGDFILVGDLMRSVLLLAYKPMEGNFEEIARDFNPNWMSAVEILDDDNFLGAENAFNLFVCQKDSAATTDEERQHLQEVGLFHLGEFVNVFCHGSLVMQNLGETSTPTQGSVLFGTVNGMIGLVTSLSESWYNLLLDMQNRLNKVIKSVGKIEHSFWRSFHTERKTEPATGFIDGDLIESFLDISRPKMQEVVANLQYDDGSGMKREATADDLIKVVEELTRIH

Row | Compound | EC50 [1] | IC50 [2] | EC50 [3] | IC50 [4]
1 | Cc1cc(OCCCc2c(C(=O)NS(=O)(=O)CCNC(=O)CCOCCOCCNc3cccc4c3C(=O)N(C3CCC(=O)NC3=O)C4=O)n(C)c3c(-c4c(C)nn(C)c4C)c(Cl)ccc23)cc(C)c1Cl (stereo not drawn) [Compound 252, 6-chloro-3-(3-(4-chloro-3,5-dimethylphenoxy)propyl)-N-((2-(3-(2-(2-((2-(2,6-dioxopiperidin-3-yl)-1,3-dioxoisoindolin-4-yl)amino)ethoxy)ethoxy)propanamido)ethyl)sulfonyl)-1-methyl-7-(1,3,5-trimethyl-1H-pyrazol-4-yl)-1H-indole-2-carboxamide] | < 0.1 µM |  |  | 
2 | Cc1nc2cc(OCC(=O)N3CCN(CCn4c(C(=O)O)c(CCCOc5cccc6cc(F)ccc56)c5ccc(Cl)c(-c6c(C)nn(C)c6C)c54)CC3)ccc2cc1C1CCC(=O)NC1=O (stereo not drawn) [Compound 288, 6-Chloro-1-(2-(4-(2-((3-(2,6-dioxopiperidin-3-yl)-2-methylquinolin-7-yl)oxy)acetyl)piperazin-1-yl)ethyl)-3-(3-((6-fluoronaphthalen-1-yl)oxy)propyl)-7-(1,3,5-trimethyl-1H-pyrazol-4-yl)-1H-indole-2-carboxylic acid] | < 0.1 µM |  |  | 
3 | Cc1nc2ccc(C(=O)N3CCN(CCn4c(C(=O)O)c(CCCOc5cccc6cc(F)ccc56)c5ccc(Cl)c(-c6c(C)nn(C)c6C)c54)CC3)cc2cc1C1CCC(=O)NC1=O (stereo not drawn) [Compound 290, 6-Chloro-1-(2-(4-(3-(2,6-dioxopiperidin-3-yl)-2-methylquinoline-6-carbonyl)piperazin-1-yl)ethyl)-3-(3-((6-fluoronaphthalen-1-yl)oxy)propyl)-7-(1,3,5-trimethyl-1H-pyrazol-4-yl)-1H-indole-2-carboxylic acid] | < 0.01 µM |  |  | 
4 | Cc1nn(C)c(C)c1-c1c(Cl)ccc2c(CCCOc3cccc4ccccc34)c(C(=O)O)n(CCN3CCN(C(=O)COc4cccc5c4CN(C4CCC(=O)NC4=O)C5=O)CC34CC4)c12 (stereo not drawn) [Compound 292, 6-Chloro-1-(2-(7-(2-((2-(2,6-dioxopiperidin-3-yl)-1-oxoisoindolin-4-yl)oxy)acetyl)-4,7-diazaspiro[2.5]octan-4-yl)ethyl)-3-(3-(naphthalen-1-yloxy)propyl)-7-(1,3,5-trimethyl-1H-pyrazol-4-yl)-1H-indole-2-carboxylic acid] |  | ≤ 0.1 µM | < 0.01 µM | > 10 µM
5 | Cc1nn(C)c(C)c1-c1c(Cl)ccc2c(CCCOc3cccc4cc(F)ccc34)c(C(=O)O)n(CCN3CCC4CN(C(=O)CNc5cccc6c5C(=O)N(C5CCC(=O)NC5=O)C6=O)CC43)c12 (stereo not drawn) [Compound 300, 6-Chloro-1-(2-(5-((2-(2,6-dioxopiperidin-3-yl)-1,3-dioxoisoindolin-4-yl)glycyl)hexahydropyrrolo[3,4-b]pyrrol-1(2H)-yl)ethyl)-3-(3-((6-fluoronaphthalen-1-yl)oxy)propyl)-7-(1,3,5-trimethyl-1H-pyrazol-4-yl)-1H-indole-2-carboxylic acid] |  | ≤ 0.1 µM | < 0.01 µM | > 3.16 µM
6 | Cc1nn(C)c(C)c1-c1c(Cl)ccc2c(CCCOc3cccc4cc(F)ccc34)c(C(=O)O)n(CCN3CCN(C(=O)[C@@H](C)Oc4cccc5c4C(=O)N(C4CCC(=O)NC4=O)C5=O)CC3)c12 (stereo partly drawn) [Compound 315, 6-Chloro-1-(2-{4-[(2R)-2-{[2-(2,6-dioxopiperidin-3-yl)-1,3-dioxo-2,3-dihydro-1H-isoindol-4-yl]oxy}propanoyl]piperazin-1-yl}ethyl)-3-{3-[(6-fluoronaphthalen-1-yl)oxy]propyl}-7-(1,3,5-trimethyl-1H-pyrazol-4-yl)-1H-indole-2-carboxylic acid] |  | ≤ 0.0316 µM | < 0.1 µM | > 3.16 µM

More lines, main results first:

Row | EC50 [1] | IC50 [2] | EC50 [3] | Compound | IC50 [4]
7 |  | ≤ 0.1 µM | < 0.01 µM | Cc1nn(C)c(C)c1-c1c(Cl)ccc2c(CCCOc3cccc4cc(F)ccc34)c(C(=O)O)n(CCCCNC(=O)CNc3cccc4c3C(=O)N(C3CCC(=O)NC3=O)C4=O)c12 (stereo not drawn) [Compound 325, 6-Chloro-1-[4-(2-{[2-(2,6-dioxopiperidin-3-yl)-1,3-dioxo-2,3-dihydro-1H-isoindol-4-yl]amino}acetamido)butyl]-3-{3-[(6-fluoronaphthalen-1-yl)oxy]propyl}-7-(1,3,5-trimethyl-1H-pyrazol-4-yl)-1H-indole-2-carboxylic acid] | > 10 µM
8 |  | ≤ 0.316 µM | < 0.1 µM | Cc1nn(C)c(C)c1-c1c(Cl)ccc2c(CCCOc3cccc4cc(F)ccc34)c(C(=O)O)n(CCCOCCOc3cccc4c3CN(C3CCC(=O)NC3=O)C4=O)c12 (stereo not drawn) [Compound 329, 6-Chloro-1-[3-(2-{[2-(2,6-dioxopiperidin-3-yl)-1-oxo-2,3-dihydro-1H-isoindol-4-yl]oxy}ethoxy)propyl]-3-{3-[(6-fluoronaphthalen-1-yl)oxy]propyl}-7-(1,3,5-trimethyl-1H-pyrazol-4-yl)-1H-indole-2-carboxylic acid] | > 10 µM
9 |  | ≤ 0.316 µM | < 0.1 µM | Cc1nn(C)c(C)c1-c1c(Cl)ccc2c(CCCOc3cccc4cc(F)ccc34)c(C(=O)O)n(CCN3CCC(CN4CCN(c5cc6c(cc5F)C(=O)N(C5CCC(=O)NC5=O)C6=O)CC4)CC3)c12 (stereo not drawn) [Compound 331, 6-Chloro-1-(2-(4-((4-(2-(2,6-dioxopiperidin-3-yl)-6-fluoro-1,3-dioxoisoindolin-5-yl)piperazin-1-yl)methyl)piperidin-1-yl)ethyl)-3-(3-((6-fluoronaphthalen-1-yl)oxy)propyl)-7-(1,3,5-trimethyl-1H-pyrazol-4-yl)-1H-indole-2-carboxylic acid] | > 10 µM
10 |  | ≤ 1 µM | < 0.1 µM | Cc1nn(C)c(C)c1-c1c(Cl)ccc2c(CCCOc3cccc4cc(F)ccc34)c(C(=O)O)n(CCN3CCC(CN4CCN(c5cccc6c5C(=O)N(C5CCC(=O)NC5=O)C6=O)CC4)CC3)c12 (stereo not drawn) [Compound 332, 6-Chloro-1-(2-(4-((4-(2-(2,6-dioxopiperidin-3-yl)-1,3-dioxoisoindolin-4-yl)piperazin-1-yl)methyl)piperidin-1-yl)ethyl)-3-(3-((6-fluoronaphthalen-1-yl)oxy)propyl)-7-(1,3,5-trimethyl-1H-pyrazol-4-yl)-1H-indole-2-carboxylic acid] | > 31.6 µM
11 |  | ≤ 0.1 µM | < 0.1 µM | Cc1nn(C)c(C)c1-c1c(Cl)ccc2c(CCCOc3cccc4cc(F)ccc34)c(C(=O)O)n(CCN3CCN(C(=O)COc4c(Cl)ccc5c4CN(C4CCC(=O)NC4=O)C5=O)CC3)c12 (stereo not drawn) [Compound 345, 6-Chloro-1-{2-[4-(2-{[5-chloro-2-(2,6-dioxopiperidin-3-yl)-1-oxo-2,3-dihydro-1H-isoindol-4-yl]oxy}acetyl)piperazin-1-yl]ethyl}-3-{3-[(6-fluoronaphthalen-1-yl)oxy]propyl}-7-(1,3,5-trimethyl-1H-pyrazol-4-yl)-1H-indole-2-carboxylic acid] | > 10 µM
12 |  | ≤ 0.316 µM | < 0.01 µM | Cc1nn2c(c1-c1c(F)ccc3c(CCCOc4cccc5cc(F)ccc45)c(C(=O)O)n(CCN4CCN(C(=O)COc5cccc6c5CN(C5CCC(=O)NC5=O)C6=O)CC4)c13)OCC2 (stereo not drawn) [Compound 351, 1-{2-[4-(2-{[2-(2,6-dioxopiperidin-3-yl)-1-oxo-2,3-dihydro-1H-isoindol-4-yl]oxy}acetyl)piperazin-1-yl]ethyl}-6-fluoro-3-{3-[(6-fluoronaphthalen-1-yl)oxy]propyl}-7-{6-methyl-2H,3H-pyrazolo[3,2-b][1,3]oxazol-7-yl}-1H-indole-2-carboxylic acid] | > 31.6 µM
